Values quoted from earlier work in US7687082B2, “Complementary compositions to reduce blood glucose levels and treat diabetes” (Astrum Therapeutics Pty. Ltd., priority 2005, dated 2010).
Like-named read-outs stand apart in the source and are kept apart here.

Tests used:
[1] = molecular target: T1, adenosine triphosphate (ATP) citrate lyase (Homo sapiens, UniProt P53396)
T1 sequence (P53396 1-1101): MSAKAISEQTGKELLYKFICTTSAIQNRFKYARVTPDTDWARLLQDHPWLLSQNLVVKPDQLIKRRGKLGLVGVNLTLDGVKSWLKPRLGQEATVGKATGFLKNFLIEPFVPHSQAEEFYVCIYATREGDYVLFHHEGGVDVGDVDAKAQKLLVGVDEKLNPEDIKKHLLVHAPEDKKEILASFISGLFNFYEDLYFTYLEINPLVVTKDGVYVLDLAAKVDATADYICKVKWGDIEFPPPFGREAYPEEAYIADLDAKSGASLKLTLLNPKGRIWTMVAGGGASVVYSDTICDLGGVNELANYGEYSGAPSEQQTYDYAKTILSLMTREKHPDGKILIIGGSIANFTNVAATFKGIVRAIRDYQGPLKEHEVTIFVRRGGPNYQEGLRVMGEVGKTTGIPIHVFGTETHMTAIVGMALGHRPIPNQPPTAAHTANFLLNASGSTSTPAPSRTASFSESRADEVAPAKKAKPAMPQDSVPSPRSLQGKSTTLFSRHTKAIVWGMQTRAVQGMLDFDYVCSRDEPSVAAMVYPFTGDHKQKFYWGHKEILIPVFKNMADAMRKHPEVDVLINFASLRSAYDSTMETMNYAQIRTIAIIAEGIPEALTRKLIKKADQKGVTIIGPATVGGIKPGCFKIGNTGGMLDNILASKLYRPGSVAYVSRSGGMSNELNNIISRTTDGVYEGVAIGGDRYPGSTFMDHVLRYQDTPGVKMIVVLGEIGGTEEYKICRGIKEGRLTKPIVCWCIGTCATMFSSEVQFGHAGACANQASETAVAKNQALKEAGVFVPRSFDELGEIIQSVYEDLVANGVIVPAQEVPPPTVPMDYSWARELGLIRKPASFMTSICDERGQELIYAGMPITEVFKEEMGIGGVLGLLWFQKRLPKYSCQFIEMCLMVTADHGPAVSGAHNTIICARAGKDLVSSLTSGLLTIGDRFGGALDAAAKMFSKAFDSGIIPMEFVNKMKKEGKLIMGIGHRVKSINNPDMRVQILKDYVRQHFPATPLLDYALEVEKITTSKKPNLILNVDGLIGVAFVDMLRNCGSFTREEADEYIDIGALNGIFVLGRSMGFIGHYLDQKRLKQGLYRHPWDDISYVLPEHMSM

humans [2] = conditions: compared to baseline
T2DM patients [3] = conditions: 200 μg twice daily, three weeks
[4] = tested on: timed-pregnant Sprague-Dawley rats; conditions: rat, in vivo
rats = conditions: rat, in vivo
humans [5] = conditions: in vivo
T2DM subjects = conditions: 600 mg twice daily, 4 weeks
[6] = tested on: diabetes mellitus patients
T2DM patients [7] = conditions: 12 weeks, compared to placebo control
[8] = with food

Compound: O=C(O)CC(O)(C(=O)O)C(O)C(=O)O (single isomer, unassigned; (-)) [(−)-HCA, (−)-hydroxycitric acid]
- inhibition of ATP citrate lyase [1]: potent inhibitor
- decreased body mass index (BMI) (humans [2]; 2.8 g): −5 to −6%
- decreased body weight (humans [2]; 2.8 g): −5 to −6%
- decreased low density lipoprotein (LDL) (humans [2]; 2.8 g): −13.2%
- decreased total cholesterol (TC) (humans [2]; 2.8 g): −7.2%
- increased high density lipoprotein (HDL) (humans [2]; 2.8 g): +7.3%
- urine level of acetaldehyde (humans [2]; end of study): +83.1%
- urine level of acetone (humans [2]; end of study): +35.6%
- urine level of formaldehyde (humans [2]; end of study): +106.4%
- urine level of malondialdehyde (humans [2]; end of study): +88.4%

Compound: [Cr] [chromium]
- reduction in triglycerides (T2DM patients [3]; compared to baseline): −10.5%
- reduction in glucose (T2DM patients [3]; compared to baseline, p<0.001): −21%
- reduction in cholesterol (T2DM patients [3]; compared to baseline, p<0.02): −9.4%
- glycated hemoglobin (HbA1C) (T2DM patients [3]; from 8.2% at baseline, p<0.01): 7.6%

Compound: CCN(CC)CCO [diethylethanolamine]
- reduction of body weight [4]: 9.5%
- reduction of weight gain [4]: 48%
- findings in respiratory epithelium of the anterior nasal turbinate (rats): inflammatory cell infiltration, focal hyperplasia, and squamous metaplasia
- individuals developing asthma (humans [5]): 0.6%

Compound: O=C(O)CCCCC1CCSS1 (stereo not drawn) [α-LA, α-lipoic acid]
- increases in glucose disposal (T2DM subjects; lean T2DM subjects compared to lean controls): 50%
- increases in glucose disposal (T2DM subjects; obese T2DM subjects compared to obese controls): 42%
- decrease of levels of peroxides [6]: 34%

Compound: chromium picolinate [CrPic]
- insulin level (T2DM patients [7]): significant decrease
- improvement in fasting glucose (T2DM patients [7]; p<0.001): 0.44 mM
- improvement in post-prandial serum glucose (T2DM patients [7]; p<0.001): 1.97 mM

Compound: konjac mannan
- decreased LDL [8]: −23%
- decreased TC [8]: −12.7%
- generalized loss of weight ([8]; average): 2.75 kg
- reduced fasting and postprandial levels of glucose ([8]; on average): −22%
